Patent publication US9670227B2, “Thienopyrimidine derivatives, a process for their preparation and pharmaceutical compositions containing them” (LES LABORATOIRES SERVIER, priority 2013, dated 2017)
Like-named read-outs stand apart in the source and are kept apart here.

Columns and labels:
Mcl-1 protein = Mcl-1 protein (UniProtKB primary accession number: Q07820) (Homo sapiens, UniProt Q07820); experiment: Inhibition of Mcl-1 by fluorescence polarisation, Method 1; type: binding; conditions: read-out: IC50 (M) Mcl-1 FP
Outline: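 Compounds were tested as 11-point serial dilutions at 5% final DMSO against 5 nM Mcl-1 with 1 nM fluorescein-labelled ligand in 10 mM HEPES, 150 mM NaCl, 0.05% Tween 20, pH 7.4. Relative binding potency was read by fluorescence polarisation.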

[1] = system: H929 multiple myeloma tumour line; experiment: In vitro cytotoxicity, Microculture Tetrazolium Assay; type: cell-based; conditions: H929 cells, 48 hours exposure, MTT, read-out: IC50 (μM) MTT H929
Experimental: The cytotoxicity studies were carried out on the H929 multiple myeloma tumour line.
The cells are distributed onto microplates and exposed to the test compounds for 48 hours.

[2] = fluorescence polarisation test, Method 2 values are underlined in the patent (underlining not visible here)
[3] = fluorescence polarisation, Method 1, or Method 2

Chain of Mcl-1 protein (Q07820 whole entry): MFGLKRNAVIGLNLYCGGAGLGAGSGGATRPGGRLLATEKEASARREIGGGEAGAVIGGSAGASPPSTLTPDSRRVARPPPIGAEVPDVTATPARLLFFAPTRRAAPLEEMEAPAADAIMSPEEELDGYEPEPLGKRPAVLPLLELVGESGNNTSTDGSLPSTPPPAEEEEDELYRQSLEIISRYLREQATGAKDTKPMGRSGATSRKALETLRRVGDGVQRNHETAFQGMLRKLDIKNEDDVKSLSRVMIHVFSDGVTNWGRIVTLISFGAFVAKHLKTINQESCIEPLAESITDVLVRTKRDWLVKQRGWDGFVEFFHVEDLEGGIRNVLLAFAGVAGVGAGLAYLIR

| Structure (SMILES) | IC50 (Mcl-1 protein; [2]) [M] | IC50 ([1]; Homo sapiens, NCI-H929, 48 h) [µM] | IC50 [1] [µM] | IC50 (Mcl-1 protein; [3]) [M] |
| --- | --- | --- | --- | --- |
| COc1ccccc1CC(Oc1ncnc2sc(-c3ccco3)c(-c3ccc(OCCN4CCN(CC(F)F)CC4)c(Cl)c3C)c12)C(=O)O [Example 328, (2R)-2-{[(5Sa)-5-(3-chloro-4-{2-[4-(2,2-difluoroethyl)piperazin-1-yl]ethoxy}-2-methylphenyl)-6-(furan-2-yl)thieno[2,3-d]pyrimidin-4-yl]oxy}-3-(2-methoxyphenyl)propanoic acid] | 5e-09 | 3.03 |  |  |
| COc1ccccc1CC(Oc1ncnc2sc(-c3ccco3)c(-c3ccc(OCC4CCCN4C)c(Cl)c3C)c12)C(=O)O [Example 299, (2R)-2-{[(5Sa)-5-(3-chloro-2-methyl-4-{[(2R)-1-methylpyrrolidin-2-yl]methoxy}phenyl)-6-(furan-2-yl)thieno[2,3-d]pyrimidin-4-yl]oxy}-3-(2-methoxyphenyl)propanoic acid] | 1.6e-08 |  | 1.03 |  |
| COc1ccc(-c2sc3ncnc(OC(Cc4ccccc4OCc4ccnc(-c5ccccc5OC)n4)C(=O)O)c3c2-c2ccc(OCCN3CCN(C)CC3)c(Cl)c2C)cc1 (single isomer, unassigned) [Example 760] |  |  | 0.004 | 1.18e-09 |
| COc1cc(-c2nccc(COc3ccccc3CC(Oc3ncnc4sc(-c5ccc(F)cc5)c(-c5ccc(OCCN6CCN(C)CC6)c(Cl)c5C)c34)C(=O)O)n2)ccn1 [Example 735, (2R)-2-{[(5Sa)-5-{3-chloro-2-methyl-4-[2-(4-methylpiperazin-1-yl)ethoxy]phenyl}-6-(4-fluorophenyl)thieno[2,3-d]pyrimidin-4-yl]oxy}-3-(2-{[2-(2-methoxypyridin-4-yl)pyrimidin-4-yl]methoxy}phenyl)propanoic acid] |  | 0.007 |  | 9.48e-10 |
| CCc1sc2ncnc(OC(Cc3cccc4c3OCO4)C(=O)O)c2c1-c1ccc(OCCN2CCN(C)CC2)c(Cl)c1C [Example 460, (2R)-3-(1,3-benzodioxol-4-yl)-2-[((5Sa)-5-{3-chloro-2-methyl-4-[2-(4-methylpiperazin-1-yl)ethoxy]phenyl}-6-ethylthieno[2,3-d]pyrimidin-4-yl)oxy]propanoic acid] |  | 6.82 |  | 1.3e-07 |
| Cc1c(-c2c(-c3ccco3)sc3ncnc(OC(Cc4ccccc4OC4CCN(C)C4)C(=O)O)c23)ccc(OCCN2CCN(C)CC2)c1Cl [Example 214, (2R)-2-{[(5Sa)-5-{3-chloro-2-methyl-4-[2-(4-methylpiperazin-1-yl)ethoxy]phenyl}-6-(furan-2-yl)thieno[2,3-d]pyrimidin-4-yl]oxy}-3-{2-[(1-methylpyrrolidin-3-yl)oxy]phenyl}propanoic acid] | 9.3e-09 | 0.897 |  |  |
| Cc1c(-c2c(-c3ccc(F)cc3)sc3ncnc(OC(Cc4ccccc4OCc4ccnc(C5CC5)n4)C(=O)O)c23)ccc(OCCN2CCN(C)CC2)c1Cl [Example 26, (2R)-2-{[(5Sa)-5-{3-chloro-2-methyl-4-[2-(4-methylpiperazin-1-yl)ethoxy]phenyl}-6-(4-fluorophenyl)thieno[2,3-d]pyrimidin-4-yl]oxy}-3-{2-[(2-cyclopropylpyrimidin-4-yl)methoxy]phenyl}propanoic acid] | 1.1e-08 | 0.028 |  |  |
| Cc1c(-c2c(-c3ccc(OCc4ccn(C)n4)cc3)sc3ncnc(OC(Cc4ccccc4OCc4ccnn4CC(F)(F)F)C(=O)O)c23)ccc(OCCN2CCN(C)CC2)c1Cl [Example 779, (2R)-2-[((5Sa)-5-{3-chloro-2-methyl-4-[2-(4-methylpiperazin-1-yl)ethoxy]phenyl}-6-{4-[(1-methyl-1H-pyrazol-3-yl)methoxy]phenyl}thieno[2,3-d]pyrimidin-4-yl)oxy]-3-(2-{[1-(2,2,2-trifluoroethyl)-1H-pyrazol-5-yl]methoxy}phenyl)propanoic acid] |  | 0.056 |  | 1.86e-09 |
